Assay results published in patent US20260183302A1, “PDK1 REGULATORY COMPOUND AND COMPOSITION CONTAINING THE SAME” (PROVIBIO CO., LTD., priority 2024, published 2026).

System: T cells isolated from mouse spleens
Assay: T cell proliferation inhibition (CFSE flow cytometry, anti-CD3/anti-CD28 stimulation)
Type: cell-based, C57BL/6 mice
Settings: three days
Procedure: To verify the T cell proliferation inhibitory effect of the compounds according to the present invention, the following experiment was performed based on flow cytometry analysis using carboxyfluorescein diacetate succinimidyl ester (CFSE), a fluorescent dye that binds to intracellular molecules via covalent bonds.
Spleens were extracted from 7-week-old C57BL/6 mice, ground, and then separated into single cells using a strainer (40 μm pore size, SPL). Red blood cells were removed using ACK (Ammonium-Chloride-Potassium) lysis buffer to isolate white blood cells.
Finally, using a MACS Magnetic Stand and LS column, T cells were isolated from the spleen.
The T cells isolated from the spleen were resuspended in 1 mL of free medium (RPMI-1640+200 U/mL penicillin+200 μg/mL streptomycin), and 0.3 μL of CFSE (10 mM) was added. The mixture was incubated at 37° C. for 5 minutes.
Free medium (10 mL) was added to stop the reaction, and the cells were centrifuged to obtain the cell pellet.
RPMI 1640 medium containing 10% FBS, 100 U/mL penicillin, 100 μg/mL streptomycin, and resuspended the cells. The cells were then seeded into a 96-well plate at a density of 2× 10^5 cells per well and activated with CD3 and CD28 antibodies (0.5 μg/mL each) to activate T cells.
The compound diluted in DMSO was added at concentrations of 10 nM, 100 nM, 1 μM, 10 μM, 30 μM, and 50 μM, with three wells per concentration, and cultured at 37° C. and 5% CO2 for three days. The cells were then analyzed using a FACS Canto instrument.
The proliferation inhibition rate (%) was calculated using the following formula: […]

SMILES	Proliferation inhibition rate (%) (concentration 1 μM)	Proliferation inhibition rate (%) (concentration 10 μM)	Proliferation inhibition rate (%) (concentration 30 μM)	Proliferation inhibition rate (%) (concentration 50 μM)	Proliferation inhibition rate (%) (concentration 100 nM)	Proliferation inhibition rate (%) (concentration 10 nM)	further results
Nc1ncccc1C(=O)NCCCCCCCCCCCCN1CCC2CCCCC2C1 (centres unmarked) [Compound 16, 2-Amino-N-(12-(octahydroisoquinolin-2 (1H)-yl)dodecyl) nicotinamide]	100.00%	100.00%	100.00%	100.00%			
Nc1ncccc1C(=O)NCCCCCCCCCCCCN1CCc2ccccc2C1 [Compound 17, 2-Amino-N-(12-(3,4-dihydroisoquinolin-2 (1H)-yl)dodecyl) nicotinamide]							Proliferation inhibition rate (%) (concentration 10 nM, listed as PBK-2024-004, 0.01 µM): 0.00%; Proliferation inhibition rate (%) (concentration 100 nM, listed as PBK-2024-004, 0.1 µM): −14.00%; Proliferation inhibition rate (%) (concentration 1 μM, listed as PBK-2024-004, 1 µM): 100.00%; Proliferation inhibition rate (%) (concentration 10 μM, listed as PBK-2024-004, 10 µM): 100.00%
CN(CCCCCCCCCCCCNC(=O)c1cccnc1N)C1CCCCC1 [Compound 34, 2-Amino-N-(12-(cyclohexyl(methyl)amino)dodecyl) nicotinamide]	100.00%	100.00%	100.00%	100.00%	100.00%		
CC1CN(CCCCCCCCCCCCNC(=O)c2cccnc2N)C(C)CN1.Cl (centres unmarked) [Compound 36, 2-Amino-N-(12-(2,5-dimethylpiperazin-1-yl)dodecyl) nicotinamide hydrochloride]	100.00%	100.00%	100.00%	100.00%	100.00%		
Nc1ncccc1C(=O)NCCCCCCCCCCCCN1CCC(O)CC1 [Compound 48, 2-Amino-N-(12-(4-hydroxypiperidin-1-yl)dodecyl) nicotinamide]	100.00%	100.00%	100.00%	100.00%	100.00%		
CN(CCCCCCCCCCCCNC(=O)c1cccnc1N)C(C)(C)C [Compound 53, 2-Amino-N-(12-(tert-butyl(methyl)amino)dodecyl) nicotinamide]	100.00%	100.00%	100.00%	100.00%	100.00%		
Nc1ncccc1C(=O)NCCCN1CCOCC1 [Compound 78, 2-amino-N-(3-morpholin-4-yl-propyl) nicotinamide]	−3.73%	0.68%	4.51%	8.76%	−4.19%	−7.14%	
COC1CCN(CCCCCCCCCCCCNC(=O)c2cccnc2N)CC1 [Compound 94, 2-amino-N-(12-(4-methoxypiperidin-1-yl)dodecyl) nicotinamide]	100.00%	100.00%	100.00%	100.00%	100.00%		
Nc1ncccc1C(=O)NCCCCCCCCCCCCN1CCN(C=O)CC1 [Compound 97, 2-amino-N-(12-(4-formylpiperazin-1-yl)dodecyl) nicotinamide]	100.00%	100.00%	100.00%	100.00%			
CC(C)(C)OC(=O)NC1CCN(CCCCCCCCCCCCNC(=O)c2cccnc2N)CC1 [Compound 101, tert-Butyl (1-(12-(2-aminonicotinamido)dodecyl)piperidin-4-yl) carbamate]	100.00%	100.00%	100.00%	100.00%	100.00%	−0.15%	
CC(C)N1CCN(CCCCCCCCCCCCNC(=O)c2cccnc2N)CC1 [Compound 104, 2-Amino-N-(12-(4-isopropylpiperazin-1-yl)dodecyl) nicotinamide]	100.00%	100.00%	100.00%	100.00%	100.00%	100.00%	
CC(C)(C)OC(=O)N1CCN(CCCCCCCCCCCCNC(=O)c2cccnc2N)CC1 [Compound 111, tert-butyl-4-(12-(2-aminonicotinamido)dodecyl) piperazine-1-carboxylate]	100.00%	100.00%	100.00%	100.00%	100.00%	0.00%	
COC(=O)C1CCN(CCCCCCCCCCCCNC(=O)c2cccnc2N)C1 (centres unmarked) [Compound 116, Methyl-1-(12-(2-aminonicotinamido)dodecyl)pyrrolidine-3-carboxylate]							inhibition at 0.01 µM (Mus musculus, T-cell, 72 h, concentration 10 nM, read-out: Proliferation inhibition rate (%)): -1.9%; inhibition at 0.1 µM (Mus musculus, T-cell, 72 h, concentration 100 nM, read-out: Proliferation inhibition rate (%)): 26.2%; inhibition at 1 µM (Mus musculus, T-cell, 72 h, concentration 1 μM, read-out: Proliferation inhibition rate (%)): 100%; inhibition at 10 µM (Mus musculus, T-cell, 72 h, concentration 10 μM, read-out: Proliferation inhibition rate (%)): 100%; inhibition at 30 µM (Mus musculus, T-cell, 72 h, concentration 30 μM, read-out: Proliferation inhibition rate (%)): 100%; inhibition at 50 µM (Mus musculus, T-cell, 72 h, concentration 50 μM, read-out: Proliferation inhibition rate (%)): 100%
CC(C)(C)OC(=O)N[C@@H]1CCCN(CCCCCCCCCCCCNC(=O)c2cccnc2N)C1 [Compound 117, tert-butyl-(R)-(1-(12-(2-aminonicotinamido)dodecyl)piperidin-3-yl) carbamate]	100.00%	100.00%	100.00%	100.00%	100.00%		
Nc1ncccc1C(=O)NCCCCCCCCCCCCN1CCOC1=O [Compound 127, 2-amino-N-(12-(2-oxooxazolidin-3-yl)dodecyl) nicotinamide]		100.00%	100.00%	100.00%			
Nc1ncccc1C(=O)NCCCCCCCCCCCCNC1CCOC1 (centres unmarked) [Compound 128, 2-amino-N-(12-((tetrahydrofuran-3-yl)amino)dodecyl) nicotinamide]	100.00%	100.00%	100.00%	100.00%	100.00%		
CN1CCN(CCCCCCCCCCCCNC(=O)c2ccccc2C(=O)NC2CCCCC2)CC1 [Compound 191, N1-Cyclohexyl-N2-(12-(4-methylpiperazin-1-yl)dodecyl) phthalamide]	7.39%	93.26%	100.00%	100.00%	0.00%	0.00%	
CN1CCN(CCCCCCCCCCCCNC(=O)c2ccnc(Cl)c2Cl)CC1 [Compound 198, 2,3-Dichloro-N-(12-(4-methylpiperazin-1-yl)dodecyl) isonicotinamide]	20.12%	100.00%	100.00%	100.00%	9.41%	5.35%	
CN1CCN(CCCCCCCCCCCCNC(=O)c2ccncc2Cl)CC1 [Compound 199, 3-Chloro-N-(12-(4-methylpiperazin-1-yl)dodecyl) isonicotinamide]	0.00%	40.00%	100.00%	100.00%	0.00%	0.00%	
CN1CCN(CCCCCCCCCCCCNC(=O)c2c(Cl)cncc2Cl)CC1 [Compound 201, 3,5-Dichloro-N-(12-(4-methylpiperazin-1-yl)dodecyl) isonicotinamide]	8.54%	78.44%	100.00%	100.00%	6.66%	7.24%	
Cc1ccc(C(=O)NCCCCCCCCCCCCN2CCN(C)CC2)nc1 [Compound 202, 5-Methyl-N-(12-(4-methylpiperazin-1-yl)dodecyl) picolinamide]	18.96%	100.00%	100.00%	100.00%	13.17%	4.05%	
